{
  "source": "paper PMC2940876",
  "about": "“Familial hemiplegic migraine CaV2.1 channel mutation R192Q enhances ATP-gated P2X3 receptor activity of mouse sensory ganglion neurons mediating trigeminal pain” (2010)",
  "target": "T1, P2X3 receptor (Mus musculus, UniProt Q3UR32)",
  "T1 construct": "gene P2rx3; native receptor in cultured mouse trigeminal ganglion neurons (WT)",
  "T1 sequence (Q3UR32 1-397)": "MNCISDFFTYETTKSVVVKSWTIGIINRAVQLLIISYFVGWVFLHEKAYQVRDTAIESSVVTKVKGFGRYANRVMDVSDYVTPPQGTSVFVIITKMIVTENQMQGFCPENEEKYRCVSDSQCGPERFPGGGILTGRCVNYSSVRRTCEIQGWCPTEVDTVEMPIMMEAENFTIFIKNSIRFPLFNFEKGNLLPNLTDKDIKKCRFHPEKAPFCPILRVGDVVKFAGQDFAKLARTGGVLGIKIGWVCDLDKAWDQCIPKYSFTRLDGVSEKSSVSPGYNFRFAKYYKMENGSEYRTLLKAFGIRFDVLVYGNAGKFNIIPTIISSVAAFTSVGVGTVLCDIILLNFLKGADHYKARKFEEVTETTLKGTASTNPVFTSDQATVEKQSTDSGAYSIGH",
  "test": "whole-cell patch clamp, agonist concentration-response on native neurons",
  "format": "cell-based",
  "data": [
    {"smiles": "Nc1ncnc2c1ncn2[C@@H]1O[C@H](COP(=O)(O)CP(=O)(O)OP(=O)(O)O)[C@@H](O)[C@H]1O", "note": "[α,β-meATP]", "values": [
      {"measurement": "EC50", "result": "6.9 ± 1.1", "unit": "µM"}
    ]}
  ]
}
